Measured values reported in patent US6635651B2, “Inhibitors of thrombin induced platelet aggregation” (Parker Hughes Institute, priority 1999, dated 2003).
pIC50: −log10 of the molar value.

Tested on: thrombin induced platelet aggregation
Test: Thrombin induced platelet aggregation (Chronolog aggregometer)
Format: cell-based
Conditions: 0.1 U/ml thrombin
Procedure: Platelets treated with 100 μM WHI-P131 or the parent compound, WHI-P258 (negative control), were stimulated with 0.1 U/ml thrombin or 10 μg/ml collagen. WHI-P131 is described above, WHI-P258 is an unsubstituted quinazoline and structurally shown below.
Platelet aggregation with respect to control was monitored in a Chronolog Model 560 Dual Chamber Platelet Aggregometer. […] WHI-P258 had no effect on the thrombin response (FIG. 1C).
Platelets treated with varying concentrations of WHI-P131 or WHI-P258 (negative control) were stimulated with 0.1 U/ml thrombin. Platelet aggregation with respect to control was monitored in a Chronolog Model 560 Dual Chamber Platelet Aggregometer. […] The results are charted in FIG. 2.

Structure (SMILES): COc1cc2ncnc(Nc3ccc(O)cc3)c2cc1OC [WHI-P131, 4-(4′-Hydroxyphenyl)-amino-6,7-dimethoxyquinazoline]
- pIC50 (Platelet, varying concentrations): 5.82

Structure (SMILES): COc1cc2ncnc(Nc3ccccc3)c2cc1OC [WHI-P258, 4-(phenyl)-amino-6,7-dimethoxyquinazoline]
- effect on thrombin induced platelet aggregation (100 μM): no effect
